# Key:
# Assay type in all cases: cell-based
# WPMY-1 cells = experiment: Autocorrelation (ICS DA) of 53BP1 in phenotypic screen images, WPMY-1
# Procedure: (§1) Images from the original study (8) were accessed through the Image Data Resource (32) API on the Open Microscopy environment. Nuclei were segmented using StarDist (33) on the BFP channel image. Segmented nuclei were then analyzed by image correlation spectroscopy autocorrelation (34) in the TP53BP1 channel and the average degree of aggregation (DA) was calculated.
# (§2) We accessed the original phenotypic screen (8) images through the IDR API on the Open Microscopy server. The screen contained three different cell lines that had endogenous TP53BP1 labeled GFP as a marker protein. We first identified all the images from these three cell lines (>60,000 images in total), then segmented the nuclei of each cell using the BFP channel image. Segmented nuclear regions were then transferred to the TP53BP1 image and image autocorrelation was performed on each nucleus. The degree of aggregation (DA, a measurement of fluorophore clustering) for each nucleus was then averaged to produce an overall image 53BP1 DA that corresponded to the compound and compound concentration. The dataset contained repeats of four different doses for each compound. The activity of each compound in each cell line was then determined by fitting a linear regression to the DA as a function of compound concentration. The slope and significance versus the null hypothesis (slope equal to zero) of DA vs. concentration was then determined.
# (§3) 53BP1 DA is a measure of protein labeled fluorophore clustering within the nucleus. […] Increases in 53BP1 recruitment can occur either through induction of DNA damage or altered repair pathways, such as shifting the response from homologous recombination to non-homologous end joining.
# 53BP1 = experiment: Autocorrelation (ICS DA) of 53BP1 in phenotypic screen images, cell line not specified; conditions: at least one cell line of A549, WPMY-1, HepG2
# Procedure: as §1, with “calculated. […] Active compounds were defined as having significant (p<0.05) non-zero linear regressions, either negative or positive. The activity score was determine by summing the direction of each active compound and dividing by the total number of compounds in the MoA.” for “calculated.”
# as §2, with “determined. Active compounds were defined as those having a significant (p<0.05) slope of DA vs. concentration.” for “determined.”
# 53BP1 DA is a measure of protein labeled fluorophore clustering within the nucleus. […] Yet, given the highly characterized role of 53BP1 in the DNA damage response (9), recruitment to DNA damage response foci is likely the most prominent driver of measured activity.
# HepG2 cells = experiment: Autocorrelation (ICS DA) of 53BP1 in phenotypic screen images, HepG2
# Procedure: as §1, §2, §3
# A549 cells = experiment: Autocorrelation (ICS DA) of 53BP1 in phenotypic screen images, A549
# Procedure: as §1, §2, §3
# HCC1937 cells = experiment: 53BP1-mApple condensate anisotropy (homo-FRET) and intensity in HCC1937 cells
# Procedure: All fluorescence imaging was performed on an Olympus FV1000 multiphoton/confocal microscope. Anisotropy measurements were performed through custom modifications to the imaging system as previously described (30). Briefly, linear polarization of two photon excitation light at 910 nm (MaiTai femtosecond laser, Spectra Physics) was controlled by a glan-thompson prism and half wave plate. […] was collected in orthogonal orientations through two detectors, parallel and perpendicular to excitation polarization, through a polarizing beam splitter that replaced a dichroic mirror in the emission filter cube. The alignment and detector gain and noise were validated each imaging session through measurements of a standard slide. Images were taken with an Olympus 25× XLPlan N objective, NA 1.05, and 3× digital zoom. Confocal imaging was performed with an Olympus XLUMPlanFL N 20× objective, NA 1.00 with chromatic correction, and 3× digital zoom.
# Cells were grown on 12 mm round, uncoated, sterilized glass coverslips in 24-well plates for 24 hours. Cells were treated with PARPi and 100 μM TMZ for 1 hour or 10 nM GMX1778 overnight followed by 100 μM TMZ for 1 hour. TMZ was added to stimulate new DNA damage induced condensates in the presence of PARPi or NAD″ depletion. Cells were then transferred to the microscope for anisotropy imaging. Images were analyzed in MATLAB. Nuclei were segmented through intensity thresholding and condensates were segmented through further intensity thresholding with a higher threshold. Values of segmented nuclei and condensates were determined through the regionprops function. Segmentation was corrected through area restrictions to ensure that regions of interest were isolated condensates. The thresholding parameters were consistent throughout experiments. The average intensity and anisotropy of each segmented nuclei or condensate was then calculated. Data were plotted in Prism and analysis performed in Prism or Excel.
# HT1080 cells = experiment: γH2AX immunofluorescence ICS DA and nuclear intensity in HT1080 cells; conditions: HT1080, 10 nM GMX1778 for 24 hours vs control
# Procedure: Cells were plated in 8-well […] slides (Thermo or Ibidi) to achieve 50% confluence overnight. Cells were then treated and fixed with 4% paraformaldehyde in PBS at room temperature for 10 minutes. Antibody staining was performed according to the manufacturers protocol. Following fluorescent secondary antibody labeling, prolong gold with DAPI (Cell Signaling Technologies) was added and samples were stored for up to 1 week prior to imaging.
# ICS analysis was performed in MATLAB as previously described (41). Briefly, nuclei were segmented from the DAPI channel with the MATLAB function, imbinarize, converting the greyscale image to a binary dependent on an automatically defined threshold. The MATLAB function, regionprops, was used to identify single nuclei as objects. Each nucleus was used as a mask to perform ICS analysis on the antibody-stained channel, within size limitations for a nucleus (objects >400 and <3000 pixels). To ensure the analysis of antibody stained nuclei, nuclei under an average intensity of 200 au after background subtraction were excluded. The spatial autocorrelation functions were calculated using Fourier methods, then fit to a 2D Gaussian using a nonlinear least-squares algorithm (41). Using the outputs of the fitting, the mean number of independent emitting fluorescent entities per focal spot area and subsequently the DA were determined (59). DA measurements across experiments were normalized by the control in each dataset. […] Any DA values exceeding 3 standard deviations from the mean were defined as incorrectly segmented and removed. Data were plotted in Prism and analysis performed in Prism or Excel.
# OVCA429 cells = experiment: γH2AX immunofluorescence in OVCA429 cells (intensity, Imaris Spots, ICS TNoP and DA)
# Excerpt: (§4) For the ICS analysis, nuclei were segmented from the DAPI channel using a watershed approach in MATLAB. Briefly, we applied a difference of gaussians for size-based feature extraction of nuclei in the image (upper gaussian σ=100, lower gaussian σ=2-5 dependent on cell size). This feature enhanced image was then binarized to create a primary mask (using the function imbinarize) and connected components under 100 pixels were removed (using the function bwareaopen). We then created a distance transform of the resulting binary image (using the function bwdist). Seed points were determined by finding the regional maximum of a gaussian filtered image, with a gaussian σ of appropriate size for seed point detection (σ×7 or 8 dependent on cell size). The seed points were applied to the distance transform, and we applied the watershed function to the resulting image to obtain masks for each nucleus (extracted using the function regionprops).
# (§5) Using the nucleus masks, we performed ICS analysis on the antibody-stained channel, within size limitations for a nucleus (objects >400 and <2400 pixels). Intensity, DA and TNOP were calculated for each cell. In this analysis, since the ROI is defined by the nucleus mask (segmented from nuclear signal using DAPI staining), TNoP represents the total number of particles per nucleus, with the image area being the number of pixels in each nuclear mask.
# (§6) Measurements across experiments were normalized by the control in each dataset. […] Data were plotted in Prism and statistical analysis was performed in Excel.
# (§7) Imaris spots analysis were performed with Imaris 9.8 with background subtraction, using a spot size of 1 μm that was measured from the smallest distinguishable foci from the control image. For images with multiple nuclei, ImarisCell was used with the detection type “cell and vesicles”, where the nucleus in the DAPI channel was modelled as the “cell” and antibody-labeled foci were modelled as the “vesicles”. This enabled us to count the number of foci per nucleus for multiple cells. In each dataset, the automatic “quality” threshold was determined from the control image and the same threshold was used for every image in the dataset to be able to compare the outputs across datasets. Similar to the ICS analysis, only cells with an area between 400-2400 voxels were included for analysis.
# (§8) All chemicals were purchased from Sigma unless otherwise noted. All drugs were purchased from Selleck Chemicals. Cells were cultured in media supplemented with 10% fetal bovine serum and 1% penicillin/streptomycin. OVCA429 were originally obtained from Dr. Michael Birrer and cultured in DMEM. SKOV3 was obtained from ATCC and cultured in RPMI. For MMS treatment, cells were incubated for 6 hours before fixation with 4% formaldehyde, whereas for treatment with PARP inhibitors, cells were incubated for 24 hours before fixation.
# (§9) Cells were plated in 8-well slides (Fisher) to achieve 50% confluence overnight. Cells were then treated and fixed with 4% formaldehyde in PBS at room temperature for 10 minutes. Antibody staining was performed according to the manufacturers protocol (Cell Signaling Technologies or Abcam). Primary antibodies used were γH2AX (CST, #2577), RPA1 (CST, #2267) and RAD51 (Abcam, 63801), with Anti-rabbit IgG Fab2 Alexa Fluor 647 (CST, #4414) as the secondary fluorescent antibody. After antibody labeling, prolong gold with DAPI (CST) was added and samples were stored for up to 1 week prior to imaging. Confocal imaging was performed on an Olympus FV1000 multiphoton/confocal microscope using an Olympus XLUMPlanFL N 20× objective, NA 1.00 with chromatic correction, and 3× digital zoom. DAPI was excited with a 405 nm laser, while Alexa Fluor 647 was excited with a 635 nm laser. A multiband (DM 405/488/561/633 nm) dichroic mirror was used to direct the excitation laser and collect emission. […]
# SKOV3 cells = experiment: γH2AX immunofluorescence in SKOV3 cells (intensity, Imaris Spots, ICS TNoP and DA)
# Excerpt: as §4, §5, §6, §7, §8, §9
# [1] = HCC1937, 10 nM GMX1778 overnight then 100 μM TMZ 1 hour
structure (smiles),measurement,setting,value
Cc1c(-c2cnccn2)ssc1=S [oltipraz],53BP1 DA vs. concentration regression (53BP1 recruitment),WPMY-1 cells,two of the strongest 53BP1 recruitment-reducing compounds
Cc1nc2c(O)cccc2c(=O)[nH]1 [NU 1025],53BP1 DA vs. concentration regression (53BP1 recruitment),53BP1,increased 53BP1 recruitment
O=C(CCCCCCC(=O)Nc1ccccc1)NO [SAHA],53BP1 DA vs. concentration regression (53BP1 recruitment),WPMY-1 cells,strong inducers of 53BP1 recruitment
CCCOc1ccc(CCc2nc3cc(-c4c(C)noc4C)ccc3n2CCN2CCOCC2)cc1 [PF CBP1],53BP1 DA vs. concentration regression (53BP1 recruitment),WPMY-1 cells,strong activity
NC(=O)c1cccc(-c2cc(Nc3ccc(OC(F)(F)F)cc3)ncn2)c1 [GNF 2],53BP1 DA vs. concentration regression (53BP1 recruitment),HepG2 cells,reduced 53BP1 recruitment
same,53BP1 DA vs. concentration regression (53BP1 recruitment),A549 cells,reduced 53BP1 recruitment
COc1ccc(C(=O)C2CCN(CC(=O)N(Cc3nc4c(c(=O)[nH]3)COCC4)CC3CC3)CC2)cc1 [NVP-TNKS656],53BP1 DA vs. concentration regression (53BP1 recruitment),53BP1,increased 53BP1 recruitment
NC(=O)c1cccc(N)c1 [3-aminobenzamide],53BP1 DA vs. concentration regression (53BP1 recruitment),HepG2 cells,reduced 53BP1 recruitment
same,53BP1 DA vs. concentration regression (53BP1 recruitment),A549 cells,reduced 53BP1 recruitment
same,53BP1 DA vs. concentration regression (53BP1 recruitment),WPMY-1 cells,reduced 53BP1 recruitment
Cc1nc(NC(=O)N2CCC[C@H]2C(N)=O)sc1-c1csc(C(C)(C)C)n1 [A66],53BP1 DA vs. concentration regression (53BP1 recruitment),WPMY-1 cells,strong inducers of 53BP1 recruitment
Cc1cc(C)c(C)c(S(=O)(=O)Nc2ccc(N3CC[C@H](C(=O)O)C3)c3ccccc23)c1C [RA839],53BP1 DA vs. concentration regression (53BP1 recruitment),WPMY-1 cells,two of the strongest 53BP1 recruitment-reducing compounds
N#CN=C(NCCCCCCOc1ccc(Cl)cc1)Nc1ccncc1 [GMX1778],53BP1-mApple condensate anisotropy vs control,HCC1937 cells; [1],significantly lowered condensate anisotropy
same,53BP1-mApple condensate intensity vs control,HCC1937 cells; [1],without impacting condensate intensity
same,γH2AX ICS DA,HT1080 cells,significantly increased
same,γH2AX levels (nuclear intensity),HT1080 cells,no significant difference
COc1ccccc1S(=O)(=O)Nc1ccc2c(c1)CN(C)C(=O)N2 [PFI-1],53BP1 DA vs. concentration regression (53BP1 recruitment),HepG2 cells,strong positive activity
same,53BP1 DA vs. concentration regression (53BP1 recruitment),A549 cells,strong positive activity
S=P(N1CC1)(N1CC1)N1CC1 [thiotepa],53BP1 DA vs. concentration regression (53BP1 recruitment),WPMY-1 cells,strong inducers of 53BP1 recruitment
O=c1[nH]cnc2ccccc12 [4-HQN],53BP1 DA vs. concentration regression (53BP1 recruitment),53BP1,increased 53BP1 recruitment
O=C(c1cc(Cc2n[nH]c(=O)c3ccccc23)ccc1F)N1CCN(C(=O)C2CC2)CC1 [olaparib],"ICS DA of γH2AX, dose dependence",OVCA429 cells; OVCA429,full dose dependent increases in γH2AX clustering
same,"Imaris Spots analysis of γH2AX, dose dependence",OVCA429 cells; OVCA429,able to capture olaparib dose dependence
same,"γH2AX intensity, dose dependence","OVCA429 cells; OVCA429, PARP inhibitors",did not show a dose dependence
same,"ICS TNoP of γH2AX, dose dependence",SKOV3 cells; SKOV3,slight TNOP dose dependence
same,Number of γH2AX spots determined by Imaris,"SKOV3 cells; SKOV3, 100 μM olaparib vs 10 μM dose",not significant compared to the 10 μM dose
same,53BP1-mApple condensate anisotropy vs control,"HCC1937 cells; HCC1937, 1 μM PARPi and 100 μM TMZ for 1 hour",significantly lower condensate anisotropy compared to control

# From US20250251402A1, “METHODS OF DETECTING MOLECULAR AGGREGATES USING IMAGE CORRELATION SPECTROSCOPY (ICS)” (The General Hospital Corporation, priority 2022, published 2025)
